Patent US20090233917A1, “Stroke recovery” (priority 2006, published 2009)

Experiments:
[1] = tested on: transient global cerebral ischemia in gerbils; test: Neuroprotection from transient global cerebral ischemia in gerbils; type: in vivo, Mongolian gerbils; conditions: 50 mg/kg intraperitoneally prior to surgery; two experiments
Experimental: Adult male Mongolian gerbils weighing 60-80 g were intraperitoneally administered 50 mg/kg of Compound 2 prior to surgery to induce transient global cerebral ischemia. The gerbils were operated under anesthesia with 2% halthane in a gas mixture of 70% N2O and 30% O2, followed by maintenance at 1% halothane to surgically expose and clamp the carotid arteries for 5 minutes to prevent the blood flow to the brain. After 5 minutes, the clamps were removed and reperfusion occurred. The gerbils were evaluated for motility and spontaneous alteration in a Y maze test essentially as described in Gupta and Sharma, Biol. Pharm. Bull. 29(5) 957-961 (2006), and were decapitated 4 days after reperfusion for histological evaluation for the neuronal survival in the hippocampal CA-1 area.

[2] = tested on: cardiac ischemia/reperfusion in rats; test: Experimental cardiac ischemia/reperfusion in rats; type: in vivo; conditions: administered prior to ischemia/reperfusion
[3] = tested on: mice under cytotoxic hypoxia; conditions: mouse, in vivo
in vivo = conditions: mouse
[4] = tested on: bacterial reverse mutation; test: Standard bacterial reverse mutation assays
[5] = tested on: permanent middle cerebral artery occlusion (MCAO) in rats; test: Functional recovery following permanent MCAO in rats (Example 1); type: in vivo, Sprague Dawley Rats; conditions: for Infarct Volume (%): day 28 after permanent MCAO, percentage of intact contralateral hemispheric volume, mean ± S.E.M.
Text: The purpose of this study was to evaluate the efficacy of arimoclomol and iroxanadine in enhancing neurological recovery in a model of permanent middle cerebral artery occlusion (MCAO) in rats. The permanent MCAO is a well accepted and considered to be a standard animal model for studying clinical aspects of stroke. (Stroke. 1999; 30:2752-2758.)
Forty male Sprague Dawley Rats, each weighing 300-400 g, which had been housed and handled for behavioral assessment for seven (7) days prior to surgery for acclimation purposes, were operated under anesthesia to create focal cerebral infarcts by permanent occlusion of the proximal right middle cerebral artery (MCA) according to modified Tamura model. Briefly, the rats were anesthetized with 2-3% halothane in the mixture of N2O:O2 (2:1), and were maintained with 1˜1.5% halothane in the mixture of N2O:O2 (2:1). The temporalis muscle was bisected and reflected through an incision made midway between the eye and the eardrum canal. The proximal MCA was exposed through a subtemporal craniectomy without removing the zygomatic arch and without transecting the facial nerve. […] Body temperature was maintained at 37.5° C.±0.5° C. throughout the entire procedure. Cefazolin (40 mg/kg; Baxter, Lot 06014.1, Exp. January 2009) was given i.p. one day before MCAO and just after MCAO to prevent infections.
The rats were randomly divided into 4 groups of 10 animals each. One group was given arimoclomol, p.o., starting at one hour after the occlusion at 200 mg/kg/d once daily for 3 days, then 50 mg/kg/d once daily for a total of 29 days. The second group was given iroxanadine using the same dosing regimen as for arimoclomol. The third group is a positive control group and is given intracistemally 1 μg (at 20 μg/ml, also containing 100 μg/ml of bovine serum albumin) beta-fibroblast growth factor (bFGF) one hour and one day (i.e. two administrations) after the occlusion. The fourth group is a negative control with administration of the vehicle only.
Animals were evaluated preoperation (day −1), then every 7 days after the operation (7, 14, 21, and 28 days) by forelimb and hindlimb placing tests and body swing test, which are widely accepted as standard tests indicative of functional recovery after a stroke model.
For the forelimb placing test, the examiner held the rat close to a tabletop and scored the rat's ability to place the forelimb on the tabletop in response to whisker, visual, tactile, or proprioceptive stimulation. Similarly, for the hindlimb placing test, the examiner assessed the rat's ability to place the hindlimb on the tabletop in response to tactile and proprioceptive stimulation. Separate sub-scores were obtained for each mode of sensory input (halfpoint designations possible), and added to give total scores (for the forelimb placing test: 0=normal, 12=maximally impaired; for the hindlimb placing test: 0=normal; 6=maximally impaired).
For the body swing test, the rat was held approximately one inch from the base of its tail. It was then elevated to an inch above a surface of a table. The rat was held in the vertical axis, defined as no more than […] to either the left or the right side. A swing was recorded whenever the rat moved its head out of the vertical axis to either side. The rat must return to the vertical position for the next swing to be counted. Thirty (30) total swings were counted. A normal rat typically has an equal number of swings to either side. Following focal ischemia, the rat tends to swing to the contralateral (left) side.
The behavior was evaluated by giving the score ranging in the parentheses after each test: • Forelimb placing test (0-12), consisting of whisker tactile placing (0-2); visual placing (forward, sideways) (0-4); tactile placing (dorsal, lateral) (0-4); and proprioceptive placing (0-2); • Hindlimb placing test (0-6), consisting of tactile placing (dorsal, lateral) (0-4); and proprioceptive placing (0-2). […]

[6] = treatment from 1 h after occlusion, up to 28 days

CC(C)(C)NCC(O)CO/N=C(\Cl)c1cccc(C(F)(F)F)c1 (centres unmarked) [Compound 2, N-[3-(1,1-dimethylethyl)amino-2-hydroxypropoxy]-3-trifluoromethylbenzene-carboximidoyl chloride]
neuroprotection (motility, Y maze, neuronal survival in hippocampal CA-1) compared to control group [1]: neuroprotective effects
duration of ventricular arrhythmias [2]: significantly decreased
overall survival [2]: increased
survival time under cytotoxic hypoxia [3]: significantly increased
LD50 (in vivo): ~1000 mg/kg
mutagenicity [4]: not to be mutagenic

c1cncc(C2=NOCC(CN3CCCCC3)N2)c1 (centres unmarked) [iroxanadine, 5,6-dihydro-5(1-piperidinyl)-methyl-3-(3-pyridyl)-4H-1,2,4-oxadiazine]
Infarct Volume (%) [5]: 21.8 ± 2.1%

bFGF: positive control, beta-fibroblast growth factor (bFGF) given intracisternally
Infarct Volume (%) [5]: 23.1 ± 1.7%
Body Swing Test, recovery compared to vehicle group [5, 6]: superior to the vehicle group
Forelimb Placing Test, recovery compared to vehicle group [5, 6]: superior to the vehicle group
Hindlimb Placing Test, recovery compared to vehicle group [5, 6]: superior to the vehicle group
